Assay results: patent publication US20250281497A1, “FUSED AMINO PYRIMIDINE COMPOUNDS FOR TREATMENT OF SEIZURE DISORDERS” (Ovid Therapeutics Inc., priority 2024, published 2025)

Key:
[1] = system: panel of 144 protein kinases; assay: SelectScreen panel of 144 protein kinases; assay type: biochemical; conditions: includes PKC isoforms, OSR1, SPAK, WNK
Experimental: Aliquots of HEK-293 cells expressing KCC2 were exposed to 30 μM SSA, heated from 37-55° C. The remaining level of soluble native KCC2 at each temperature was measured by immunoblotting and normalized to the level seen at 37° C. which was given a value of 1. […] This panel included protein kinase C isoforms, OSR1, SPAK (STK39) and with-no-lysine kinases (WNK), all of which phosphorylate KCC2 on multiple residues to indirectly modify its activity (Kahle et al., 2013, supra; Smalley et al., 2020, supra).

KCC2 = biological target: T1, KCC2 (Homo sapiens, UniProt Q9H2X9); assay: Surface biotinylation of KCC2 in HEK-293 cells; assay type: cell-based; conditions: 15 min
T1 construct: expressed in transfected cells; host or cells: HEK-293 (ATCC CRL-1573)
T1 sequence (Q9H2X9 1-1116 isoform Q9H2X9-2): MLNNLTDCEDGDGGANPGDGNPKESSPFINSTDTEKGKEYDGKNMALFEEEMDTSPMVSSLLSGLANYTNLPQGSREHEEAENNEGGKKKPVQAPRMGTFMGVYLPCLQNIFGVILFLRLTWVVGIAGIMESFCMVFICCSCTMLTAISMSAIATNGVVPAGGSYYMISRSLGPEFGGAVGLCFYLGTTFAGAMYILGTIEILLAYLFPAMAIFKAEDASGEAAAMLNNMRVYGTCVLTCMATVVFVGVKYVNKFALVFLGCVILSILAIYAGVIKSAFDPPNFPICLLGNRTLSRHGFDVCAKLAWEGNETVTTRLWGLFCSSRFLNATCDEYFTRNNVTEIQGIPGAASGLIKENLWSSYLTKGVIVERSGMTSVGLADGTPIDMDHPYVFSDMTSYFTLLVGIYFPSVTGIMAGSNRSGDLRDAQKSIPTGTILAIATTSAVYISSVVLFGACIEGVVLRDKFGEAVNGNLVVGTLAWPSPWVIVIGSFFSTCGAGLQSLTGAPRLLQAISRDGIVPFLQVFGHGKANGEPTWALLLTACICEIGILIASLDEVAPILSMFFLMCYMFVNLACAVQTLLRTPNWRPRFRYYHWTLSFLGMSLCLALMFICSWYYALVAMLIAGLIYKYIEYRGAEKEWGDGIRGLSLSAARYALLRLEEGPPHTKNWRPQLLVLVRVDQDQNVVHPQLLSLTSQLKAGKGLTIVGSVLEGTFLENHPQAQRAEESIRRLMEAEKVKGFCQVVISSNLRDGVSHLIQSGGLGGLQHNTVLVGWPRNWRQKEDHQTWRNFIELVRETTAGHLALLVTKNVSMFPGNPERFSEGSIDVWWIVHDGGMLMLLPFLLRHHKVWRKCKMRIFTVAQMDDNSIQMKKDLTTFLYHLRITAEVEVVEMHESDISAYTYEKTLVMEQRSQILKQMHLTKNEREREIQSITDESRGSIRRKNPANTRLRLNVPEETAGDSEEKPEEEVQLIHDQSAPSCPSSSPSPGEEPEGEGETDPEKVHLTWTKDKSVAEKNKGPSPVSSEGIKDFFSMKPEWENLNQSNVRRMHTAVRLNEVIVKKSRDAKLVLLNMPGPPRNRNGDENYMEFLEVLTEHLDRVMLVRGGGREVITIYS
Experimental: Cell Culture and biotinylation. HEK-293 cells were purchased from ATCC (CRL-1573) and transfected with human KCC2 and GFP expression plasmids using Lipofectamine 2000. Cells were utilized for experimentation 48-72h following transfection. Cells were biotinylated at 4° C. using NHS-Biotin. Following lysis and purification on immobilized avidin beads, cell surface and total fractions were subject to immunoblotting as outlined previously (Conway et al., 2017, supra).
The reliability of the biotinylation procedure was assessed via immunoblotting with antibodies against the cytosolic protein actin. Actin was present in the total lysates but was absent from the surface fractions (FIG. 2C).

[2] = set-up: species or system mice; conditions: in vivo

**Q.** Which “activity of panel of 144 protein kinases” value [1] does the source give for `C[C@@H]1CN(c2nc3c(c(Nc4ccc(C5CCCCC5)cc4)n2)COC3)CCO1` [Compound A, (R)—N-(4-cyclohexylphenyl)-2-(2-methylmorpholino)-5,7-dihydrofuro[3,4-d]pyrimidin-4-amine] here?
**A.** did not modify the activity of this kinase panel

**Q.** And the “KCC2 on the plasma membrane (surface/total)” value (KCC2; 0.3 μM)?
**A.** 94.5±8.4 % of control

**Q.** What about the “KCC2 on the plasma membrane (surface/total)” value (KCC2; 3 μM) of the same compound?
**A.** 104.7±8.4 % of control

**Q.** And the “gross effects on mouse behavior, open field” value [2]?
**A.** no gross effects on mouse behavior
